26 molecules from patent US10323018B2 (Millennium Pharmaceuticals, Inc., priority 2015, dated 2019) can be followed below.

One experiment has as its target hNAMPT protein (Homo sapiens (Human), UniProt P43490). Put plainly: NAMPT enzyme assay (TR-FRET/HTRF with BodiPY ligand). The experiment is classed as binding. Conditions: for inhibition at 1 µM: NAMPT inhibition at compound concentration 1 μM, read-out: Percent Inhibition; for pIC50: NAMPT inhibition, IC50 range class. An outline of the steps: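 His-tagged hNAMPT with anti-6His-Tb, incubated with compound and BodiPY ligand for 1 h at rt in the dark, in Tris-HCl pH 7.5 buffer with DTT, NaCl, MgCl2 and Tween 20. TR-FRET measured with 320 nm excitation as the 520/486 nm emission ratio. IC50 fitted relative to DMSO controls.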

A further experiment has as its system PC3 cells. Put plainly: PC3 growth inhibition (Cell-titer glo, 72 hours). Format: cell-based. Particulars: Homo sapiens, PC-3, 72 h, read-out: Percent Viability, PC3 cells, compound concentration 1.667 μM, 72 hours. The method in brief: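 PC3 cells grown in RPMI1640 plated at 8×10^4 cells/ml, incubated overnight, then exposed to compound diluted in AIM serum-free medium for 72 h at 37 °C, 5% CO2. Luminescence by CellTiter-Glo relative to DMSO controls; % viability at single concentration, GI50 or LD50 from concentration-response curves.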

Structures are written as SMILES. pIC50: −log10 of the molar value. Bounds are passed on as bounds.

hNAMPT protein, sequence (P43490 whole entry): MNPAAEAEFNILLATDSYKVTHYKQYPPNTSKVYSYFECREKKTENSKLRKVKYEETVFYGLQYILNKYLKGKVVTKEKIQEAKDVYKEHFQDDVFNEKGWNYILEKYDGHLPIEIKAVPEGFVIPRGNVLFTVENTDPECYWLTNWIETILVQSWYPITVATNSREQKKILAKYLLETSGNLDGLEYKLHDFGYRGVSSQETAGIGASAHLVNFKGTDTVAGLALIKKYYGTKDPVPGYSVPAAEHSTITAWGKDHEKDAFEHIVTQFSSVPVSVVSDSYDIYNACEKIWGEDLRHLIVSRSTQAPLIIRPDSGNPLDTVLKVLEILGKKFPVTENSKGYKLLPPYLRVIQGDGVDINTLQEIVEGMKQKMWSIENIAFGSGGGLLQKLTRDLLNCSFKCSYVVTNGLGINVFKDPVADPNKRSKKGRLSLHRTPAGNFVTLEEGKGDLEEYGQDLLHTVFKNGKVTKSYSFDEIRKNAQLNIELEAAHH

As to `Cc1nc(-c2ccc(Cl)cc2)nc2cc(C(=O)NCCCc3nnc[nH]3)ccc12` [Compound I-63, N-(3-(4H-1,2,4-triazol-3-yl)propyl)-2-(4-chlorophenyl)-4-methylquinazoline-7-carboxamide], at hNAMPT protein, the inhibition at 1 µM was 77% and the pIC50 is < 7.00. Further, the viability at 1.667 µM with PC3 cells was 7%.
In the case of `CCOc1cc(-c2ccc(F)cc2OC)nc2cc(C(=O)NCc3ccn4ncnc4c3)ccc12` [Compound I-85, 4-ethoxy-2-(4-fluoro-2-methoxyphenyl)-N-([1,2,4]triazolo[1,5-a]pyridin-7-ylmethyl)quinoline-7-carboxamide], on hNAMPT protein, the inhibition at 1 µM worked out at 100% and the pIC50 was > 8.00. Also, the viability at 1.667 µM with PC3 cells turned out to be 2%.
In the same order, the values of `CCOc1cc(-c2ccc(OC)nc2)nc2cc(C(=O)NCCCc3cnn[nH]3)ccc12` [Compound I-102, 4-ethoxy-2-(6-methoxypyridin-3-yl)-N-[3-(1H-1,2,3-triazol-5-yl)propyl]quinoline-7-carboxamide] are 99%, > 8.00 and 2%.
Turning to `COCCOc1cc(-c2ccc(F)cc2)nc2cc(C(=O)NCCCc3cn[nH]n3)ccc12` [Compound I-109, 2-(4-fluorophenyl)-4-(2-methoxyethoxy)-N-[3-(2H-1,2,3-triazol-4-yl)propyl]quinoline-7-carboxamide], at hNAMPT protein, the inhibition at 1 µM worked out at 100% and the negative logarithm of the IC50 (pIC50) is 7.30 to 8.00. In addition, the viability at 1.667 µM in the experiment on PC3 cells is 2%.
The matching figures for `CCOc1cc(-c2ccc(F)cc2)nc2cc(C(=O)N[C@H]3C[C@@H](c4ncc[nH]4)C3)ccc12` [Compound I-60, 4-Ethoxy-2-(4-fluorophenyl)-N-[cis-3-(1H-imidazol-2-yl)cyclobutyl]quinoline-7-carboxamide]: 99%, > 8.00 and 1%.
In the same order, the values of `CCOc1cc(-c2cc(OC)ncc2Cl)nc2cc(C(=O)NCCCc3nnc[nH]3)ccc12` [Compound I-164, 2-(5-chloro-2-methoxypyridin-4-yl)-4-ethoxy-N-[3-(4H-1,2,4-triazol-3-yl)propyl]quinoline-7-carboxamide] are 97%, > 8.00 and 2%.
Regarding `CCOc1cc(-c2ccc(F)cc2)nc2cc(C(=O)NCCc3n[nH]nc3C)ccc12` [Compound I-203, 4-ethoxy-2-(4-fluorophenyl)-N-[2-(5-methyl-2H-1,2,3-triazol-4-yl)ethyl]quinoline-7-carboxamide], on hNAMPT protein, the inhibition at 1 µM turned out to be 98% and the negative-log IC50 (pIC50) was > 8.00. Besides, the viability at 1.667 µM in the experiment on PC3 cells worked out at 2%.
In the same order, the values of `CCCc1cc(-c2ccc(F)cc2)nc2cc(C(=O)NCCc3c[nH]nc3C)ccc12` [Compound I-152, 2-(4-fluorophenyl)-N-[2-(3-methyl-1H-pyrazol-4-yl)ethyl]-4-propylquinoline-7-carboxamide] are 84%, < 7.00 and 2%.
In the same order, the values of `CCOc1cc(-c2ccc(F)cc2)nc2cc(C(=O)NCCc3ccc(C#N)cc3)ccc12` [Compound I-47, N-[2-(4-cyanophenyl)ethyl]-4-ethoxy-2-(4-fluorophenyl)quinoline-7-carboxamide] are 47%, > 8.00 and 99%.
The matching figures for `CCOc1cc(-c2ccc(OC)nc2)nc2cc(C(=O)NCCc3cn[nH]c3C)ccc12` [Compound I-153, 4-ethoxy-2-(6-methoxypyridin-3-yl)-N-[2-(5-methyl-1H-pyrazol-4-yl)ethyl]quinoline-7-carboxamide]: 98%, 7.30 to 8.00 and 2%.
In the case of `CCOc1cc(-c2ccc(F)cc2)nc2cc(C(=O)NCCCn3cccn3)ccc12` [Compound I-43, 4-ethoxy-2-(4-fluorophenyl)-N-[3-(1H-pyrazol-1-yl)propyl]quinoline-7-carboxamide], at hNAMPT protein, the inhibition at 1 µM was 99% and the negative logarithm of the IC50 (pIC50) was > 8.00. Moreover, the viability at 1.667 µM in the experiment with PC3 cells amounted to 77%.
The matching figures for `CCOc1cc(C2=CCOCC2)nc2cc(C(=O)NCCCc3nnc[nH]3)ccc12` [Compound I-140, 2-(3,6-dihydro-2H-pyran-4-yl)-4-ethoxy-N-[3-(4H-1,2,4-triazol-3-yl)propyl]quinoline-7-carboxamide]: 91%, 7.00 to 7.30 and 2%.
Turning to `CCOc1cc(-c2ccc(F)cc2)nc2cc(C(=O)NCc3ccc4ncnn4c3)ccc12` [Compound I-84, 4-ethoxy-2-(4-fluorophenyl)-N-([1,2,4]triazolo[1,5-a]pyridin-6-ylmethyl)quinoline-7-carboxamide], on hNAMPT protein, the inhibition at 1 µM was 99% and the pIC50 is > 8.00. The viability at 1.667 µM in the experiment on PC3 cells was 1%.
The matching figures for `CCOc1cc(-c2ccnc(OC)c2)nc2cc(C(=O)NCc3nc4cnccc4[nH]3)ccc12` [Compound I-194, 4-ethoxy-N-(1H-imidazo[4,5-c]pyridin-2-ylmethyl)-2-(2-methoxypyridin-4-yl)quinoline-7-carboxamide]: 100%, > 8.00 and 3%.
In the case of `CCOc1cc(N2CCCC2)nc2cc(C(=O)NCCCc3ncc[nH]3)ccc12` [Compound I-62, 4-Ethoxy-N-[3-(1H-imidazol-2-yl)propyl]-2-(pyrrolidin-1-yl)quinoline-7-carboxamide], on hNAMPT protein, the inhibition at 1 µM is 95% and the pIC50 is 7.00 to 7.30. Moreover, the viability at 1.667 µM with PC3 cells was 2%.
In the same order, the values of `CCOc1cc(-c2ccc(F)cc2)nc2cc(C(=O)NCCc3ccn[nH]3)ccc12` [Compound I-46, 4-ethoxy-2-(4-fluorophenyl)-N-[2-(1H-pyrazol-5-yl)ethyl]quinoline-7-carboxamide] are 97%, 7.30 to 8.00 and 3%.
The matching figures for `CCOc1cc(-c2ccc(C)nc2OC)nc2cc(C(=O)NCCc3[nH]nnc3C)ccc12` [Compound I-87, 4-ethoxy-2-(2-methoxy-6-methylpyridin-3-yl)-N-[2-(4-methyl-1H-1,2,3-triazol-5-yl)ethyl]quinoline-7-carboxamide]: 94%, 7.30 to 8.00 and 2%.
Take `COCCOc1cc(-c2ccnc(OC)c2)nc2cc(C(=O)NCc3ccn4ncnc4c3)ccc12` [Compound I-67]: the inhibition at 1 µM at hNAMPT protein turned out to be 85%. For the same molecule, in the experiment with PC3 cells, the viability at 1.667 µM came out at 3%.
Turning to `O=C(NCCCc1ncc[nH]1)c1ccc2c(CN3CCSCC3)nc(-c3ccc(Cl)cc3)nc2c1` [Compound I-26, 2-(4-chlorophenyl)-N-[3-(1H-imidazol-2-yl)propyl]-4-(thiomorpholin-4-ylmethyl)quinazoline-7-carboxamide], on hNAMPT protein, the inhibition at 1 µM stood at 89% and the pIC50 is < 7.00. For the same molecule, the viability at 1.667 µM in the experiment with PC3 cells is 1%.
In the same order, the values of `CCOc1cc(-c2ccc(=O)n(C)c2)nc2cc(C(=O)NCCc3[nH]nnc3C)ccc12` [Compound I-76, 4-ethoxy-2-(1-methyl-6-oxo-1,6-dihydropyridin-3-yl)-N-[2-(4-methyl-1H-1,2,3-triazol-5-yl)ethyl]quinoline-7-carboxamide] are 93%, 7.00 to 7.30 and 11%.
The matching figures for `CCOc1cc(-c2ccc(F)cc2)nc2cc(C(=O)NCCCc3cnn[nH]3)ccc12` [Compound I-115, 4-ethoxy-2-(4-fluorophenyl)-N-[3-(1H-1,2,3-triazol-5-yl)propyl]quinoline-7-carboxamide]: > 99%, > 8.00 and 2%.
Consider `CCOc1cc(-c2ccc(F)cc2)nc2cc(C(=O)NCCc3c[nH]nc3C)ccc12` [Compound I-132, 4-ethoxy-2-(4-fluorophenyl)-N-[2-(3-methyl-1H-pyrazol-4-yl)ethyl]quinoline-7-carboxamide], for which, on hNAMPT protein, the inhibition at 1 µM was > 99% and the pIC50 was > 8.00. For the same molecule, in the experiment with PC3 cells, the viability at 1.667 µM stood at 3%.
In the same order, the values of `CCOc1cc(-c2ccc(Cl)s2)nc2cc(C(=O)NCCc3cnn[nH]3)ccc12` [Compound I-176, 2-(5-chloro-2-thienyl)-4-ethoxy-N-[2-(1H-1,2,3-triazol-5-yl)ethyl]quinoline-7-carboxamide] are 99%, 7.30 to 8.00 and 4%.
The matching figures for `CCOc1cc(-c2ccnc(C)c2)nc2cc(C(=O)NCCCc3cnn[nH]3)ccc12` [Compound I-117, 4-ethoxy-2-(2-methylpyridin-4-yl)-N-[3-(1H-1,2,3-triazol-5-yl)propyl]quinoline-7-carboxamide]: 100%, > 8.00 and 2%.
In the same order, the values of `CCOc1cc(-c2ccnc(C(F)(F)F)c2)nc2cc(C(=O)NCCCc3nnc[nH]3)ccc12` [Compound I-218, 4-ethoxy-N-[3-(4H-1,2,4-triazol-3-yl)propyl]-2-[2-(trifluoromethyl)pyridin-4-yl]quinoline-7-carboxamide] are 93%, 7.00 to 7.30 and 2%.
Take `O=C(NCCCc1ncc[nH]1)c1ccc2c(OCCO)cc(-c3ccc(F)cc3)nc2c1` [Compound I-229, 2-(4-fluorophenyl)-4-(2-hydroxyethoxy)-N-[3-(1H-imidazol-2-yl)propyl]quinoline-7-carboxamide]: at hNAMPT protein, the inhibition at 1 µM was 99% and the pIC50 was > 8.00. Further, the viability at 1.667 µM with PC3 cells is 2%.
